# Test results published in patent EP0415456A2, “Xanthine compounds” (priority 1989, dated 1991).
# Like-named read-outs stand apart in the source and are kept apart here.
# How the values were obtained:
# Wistar rats = test: diuretic effect; format: in vivo; details: urine collected for 6 hours; for Increase in K⁺ excretion (%) / Increase in Na⁺excretion (%) / Increase in Urine (%): relative to control; for Na⁺/K⁺: relative value of control (control 1.00)
# Experimental: Wistar rats (male: 150 - 300 g) were starved for 18 hours prior to the administration of the test compounds. […] Urine was collected for 6 hours after the administration. Urine volume was measured and the electrolytes (Na+ and K+) in the urine were determined with a flame photome[…], Hitachi Ltd., Japan). All parameters are expressed as relative values of control.
# male dd-strain mice = test: acute toxicity test; format: in vivo
# Experimental: […]. The Minimum lethal dose (MLD) of the compounds was determined by observing whether or not the mice were alive after 7 days of the administration.
# Adenosine A₁ Receptor = biological target: T1, Adenosine A₁ Receptor (Cavia porcellus, UniProt P47745); test: Adenosine A1 receptor binding (3H-CHA binding); parameters: species or system guinea pig; details: for Ratio of Ki Values [A₂/A₁]: A₂ Ki (rat corpus striatum) / A₁ Ki (guinea pig cerebrum); for Ki: calculated from Cheng-Prusoff's equation, ³H-CHA; for Ki / inhibition at 100 µM / inhibition at 10 µM: guinea pig cerebrum; for inhibition at 100 µM: concentration of tested compound 10⁻⁴ M; for inhibition at 100 µM / inhibition at 10 µM: ³H-CHA 1.1 nM; for inhibition at 10 µM: concentration of tested compound 10⁻⁵ M
# T1 construct: from tissue; host or cells: guinea pig cerebrum membrane preparation
# T1 sequence (P47745 1-326): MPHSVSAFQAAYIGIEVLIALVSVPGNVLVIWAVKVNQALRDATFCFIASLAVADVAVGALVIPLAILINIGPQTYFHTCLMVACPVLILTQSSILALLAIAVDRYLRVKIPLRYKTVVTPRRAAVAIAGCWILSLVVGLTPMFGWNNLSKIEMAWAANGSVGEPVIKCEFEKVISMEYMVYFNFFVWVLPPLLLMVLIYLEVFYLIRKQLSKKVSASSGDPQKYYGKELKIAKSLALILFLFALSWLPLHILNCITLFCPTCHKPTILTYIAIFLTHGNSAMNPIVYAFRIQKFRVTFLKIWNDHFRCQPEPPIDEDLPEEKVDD
# Experimental: Cerebrum of a guinea pig was suspended into ice cooled 50 mM tris hydroxymethyl aminomethane hydrochloride (Tris HCl) buffer (pH = 7.7), by using Polytron homogenizer (manufactured by Kinematica Co.). The suspension was centrifuged (50,000 x g, 10 minutes), and the precipitate was resuspended by adding the same volume of 50 mM Tris HCl buffer. The suspension was centrifuged under the same conditions, and the precipitate obtained was suspended once again by adding 10 volumes of 50 mM Tris HCl. The tissue suspension was incubated at 37°C for 30 minutes in the presence of 0.02 units/mg tissue of adenosine deaminase (manufactured by Sigma Co.). The resulting tissue suspension was recentrifuged (50,000 x g, 10 minutes), and 50 mM Tris HCl was added to the precipitate to adjust the concentration of tissue to 10 mg (wet weight)/mℓ.
# The mixture was incubated at 25°C for 90 minutes, and the resulting reaction was stopped by rapid vacuum filtration through a glass fiber filter (GF/C manufactured by Whatman Co.) followed by immediately washing three times with 5 mℓ each of ice cold 50 mM Tris HCl buffer. […] Its radioactivity was then determined by a scintillation counter (manufactured by Packard Instrument Co.).
# The inhibition rate of the test compounds against the binding of A₁ […] (³H-CHA binding) was calculated from the following equation: [formula]
# • 1. […] The inhibition constant (Ki value) shown in the table was calculated from Cheng-Prusoff's equation.
# A₂ receptor = biological target: T2, A₂ receptor (Rattus norvegicus, UniProt P30543); test: Adenosine A2 receptor binding (3H-NECA binding); details: for inhibition at 10 µM / inhibition at 100 µM: read-out: A₂ Receptor Inhibition (%)
# T2 construct: A precipitate was prepared from rat corpus striatum; from tissue; host or cells: rat corpus striatum membrane preparation
# T2 sequence (P30543 whole entry): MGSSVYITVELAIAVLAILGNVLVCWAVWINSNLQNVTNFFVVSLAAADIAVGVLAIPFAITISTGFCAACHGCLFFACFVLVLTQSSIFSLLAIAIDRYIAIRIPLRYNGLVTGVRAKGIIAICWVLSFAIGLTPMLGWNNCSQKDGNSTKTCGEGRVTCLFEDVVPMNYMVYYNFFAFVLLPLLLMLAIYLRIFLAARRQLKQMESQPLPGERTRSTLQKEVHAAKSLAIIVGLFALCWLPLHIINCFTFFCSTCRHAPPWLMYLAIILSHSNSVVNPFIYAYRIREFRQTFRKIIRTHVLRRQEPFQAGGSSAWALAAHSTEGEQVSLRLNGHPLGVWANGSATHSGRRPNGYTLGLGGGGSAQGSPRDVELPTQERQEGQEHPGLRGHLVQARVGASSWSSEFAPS
# Experimental: A precipitate was prepared from rat corpus striatum in a similar manner as in 1) above. The precipitate was suspended by adding a 50 mM Tris HCl buffer containing 10 mM magnesium chloride and 0.02 unit/mg (tissue) of adenosine deaminase (manufactured by Sigma Co.) to adjust the concentration of tissue to 5 mg (wet weight)/mℓ.
# The mixture was incubated at 25°C within 120 minutes. The resulting mixture was treated in the same manner as in 1) above to determine its radioactivity.
# The inhibition rate of the test compound against the binding of A₂ receptor (³H-NECA binding) was calculated from the following equation: [formula]
# [1] = tested on: glycerol-induced renal failure model; test: renal-protecting effect (glycerol-induced renal failure model); format: in vivo; details: male Wistar rats; for suppression of increases of the serum creatinine and of urine-nitrogen: 0.01 - 10 mg/kg i.p., 24 hours after 50% glycerol s.c. (p < 0.05)
# Experimental: A renal failure is a state wherein the renal function is lowered and the homeostasis of a body fluid can be no more maintained. It is known that an acute renal failure characteristic of uriniferous tubule disorder is caused by subcutaneous or intramuscular injection of glycerol to rats [Can. J. Physiol.
# Male Wistar rats were kept deprived or water for 18 hours, and served for the test. A test compound was intraperitoneally administered to the rats (dosage: 1 mℓ/kg) and the rats were anesthetized with ether and 50% glycerol was subcutaneously administered (dosage: 0.8mℓ/100g) to the rats, pinching the dorsal skin. Twenty four hours after the administration of glycerol, the rats were anesthetized with ether and 5 mℓ of blood were collected from the abdominal aorta. The collected blood was allowed to stand for 30 minutes or longer and then centrifuged at 3,000 rpm for 10 minutes, and the amounts of the serum creatinine and urine-nitrogen (UN) contained in the serum were determined by auto analyzer (Olympus AU510) or measured by a creatinine test Wako (Jaffé method) and UN Test Wako (diacetylmonooxime direct method). Both are manufactured by Wako Pure Chemicals Co.
# On the other hand, the left kidneys of the blood-sampled rats were removed and placed in formalin-filled vial bottles, and used as samples for the pathological examination.
# [2] = ³H-NECA with CPA, rat corpus striatum, read-out: A₂ Receptor Ki
# [3] = 300 mg/kg orally administered, male dd-strain mice, observed 7 days after administration
# [4] = amount of the administration 6.25 mg.kg, oral
compound,measurement,setting,value
"CCCn1c(=S)c2[nH]c(C34CC5CC(CC3C5)C4)nc2n(CCC)c1=O [Compound 32, 8-(Noradamantan-3-yl)-1,3-dipropyl-6-thioxanthine]",Increase in K⁺ excretion (%),Wistar rats; 25 mg/kg oral,41%
same,Increase in Na⁺excretion (%),Wistar rats; 25 mg/kg oral,114%
same,Increase in Urine (%),Wistar rats; 25 mg/kg oral,100%
same,Na⁺/K⁺,Wistar rats; 25 mg/kg oral,1.51
same,Minimum lethal dose (MLD),"male dd-strain mice; mouse, in vivo, 10080 min",more than 300 mg/kg
"CCCCn1c(=O)c2[nH]c(C34CC5CC(CC3C5)C4)nc2n(CCCC)c1=O [Compound 29, 8-(Noradamantan-3-yl)-1,3-dibutylxanthine]",Increase in K⁺ excretion (%),Wistar rats; 25 mg/kg oral,65%
same,Increase in Na⁺excretion (%),Wistar rats; 25 mg/kg oral,137%
same,Increase in Urine (%),Wistar rats; 25 mg/kg oral,123%
same,Na⁺/K⁺,Wistar rats; 25 mg/kg oral,1.43
same,Ratio of Ki Values [A₂/A₁],Adenosine A₁ Receptor,107
same,Ki,Adenosine A₁ Receptor,9.1 nM
same,inhibition at 100 µM,Adenosine A₁ Receptor,100%
same,inhibition at 10 µM,Adenosine A₁ Receptor,100%
same,inhibition at 10 µM,A₂ receptor,72%
same,inhibition at 100 µM,A₂ receptor,78%
same,Ki,A₂ receptor; [2],970 nM
"CCCn1c(=O)c2nc(CC34CC5CC(CC(C5)C3)C4)[nH]c2n(CCC)c1=O [Compound 15, 8-(Adamantan-1-yl)methyl-1,3-dipropylxanthine]",Minimum lethal dose (MLD),"male dd-strain mice; mouse, in vivo, 10080 min",more than 300 mg/kg
"CCCn1c(=O)c2[nH]c(-c3ccc(OCC(=O)NCCN)cc3)nc2n(CCC)c1=O [XAC, reference compound]",suppression of increases of the serum creatinine and of urine-nitrogen,[1],weak effect
"CCCn1c(=O)c2[nH]c([C@@H]3CC[C@H]4CCC[C@H]43)nc2n(CCC)c1=S (relative stereo) [Compound 24, 8-[(1R*,2R*,5R*)-Bicyclo[3.3.0]octan-2-yl]-1,3-dipropyl-2-thioxanthine]",Increase in K⁺ excretion (%),Wistar rats; 25 mg/kg oral,61%
same,Increase in Na⁺excretion (%),Wistar rats; 25 mg/kg oral,125%
same,Increase in Urine (%),Wistar rats; 25 mg/kg oral,112%
same,Na⁺/K⁺,Wistar rats; 25 mg/kg oral,1.40
same,Minimum lethal dose (MLD),male dd-strain mice; [3],more than 300 mg/kg
"CCCn1c(=O)c2nc(C3CC4CCC3C4)[nH]c2n(CCC)c1=O (stereo not drawn) [Compound 4, 8-[(1R*,2R*,5S*)-bicyclo[2.2.1)heptan-2-yl]-1,3-dipropylxanthine]",Increase in K⁺ excretion (%),Wistar rats; 25 mg/kg oral,27%
same,Increase in Na⁺excretion (%),Wistar rats; 25 mg/kg oral,106%
same,Increase in Urine (%),Wistar rats; 25 mg/kg oral,113%
same,Na⁺/K⁺,Wistar rats; 25 mg/kg oral,1.63
same,Minimum lethal dose (MLD),"male dd-strain mice; mouse, in vivo, 10080 min",more than 300 mg/kg
"CCCn1c(=O)c2[nH]c(-c3ccc(S(=O)(=O)N(C)CCN(C)C)cc3)nc2n(CCC)c1=O [PD 115199, reference compound]",suppression of increases of the serum creatinine and of urine-nitrogen,[1],totally ineffective
same,Ratio of Ki Values [A₂/A₁],Adenosine A₁ Receptor,0.14
same,Ki,Adenosine A₁ Receptor,190 nM
same,inhibition at 100 µM,Adenosine A₁ Receptor,100%
same,inhibition at 10 µM,Adenosine A₁ Receptor,97%
same,inhibition at 10 µM,A₂ receptor,94%
same,inhibition at 100 µM,A₂ receptor,98%
same,Ki,A₂ receptor; [2],26 nM
"Nc1nc2ccc(Cl)cc2c2nc(-c3ccco3)nn12 [CGS 15943, reference compound]",Ki,A₂ receptor,0.73 nM
same,inhibition at 10 µM,A₂ receptor,99%
same,inhibition at 100 µM,A₂ receptor,97%
"CCCn1c(=O)c2[nH]c(Cc3csc(N)n3)nc2n(CCC)c1=O [Compound 12, 8-(2-Aminothiazol-4-yl)methyl-1,3-dipropylxanthine]",Increase in K⁺ excretion (%),Wistar rats; 25 mg/kg oral,32%
same,Increase in Na⁺excretion (%),Wistar rats; 25 mg/kg oral,103%
same,Increase in Urine (%),Wistar rats; 25 mg/kg oral,108%
same,Na⁺/K⁺,Wistar rats; 25 mg/kg oral,1.54
same,Minimum lethal dose (MLD),male dd-strain mice; [3],300 mg/kg
"CCCn1c(=O)c2[nH]c([C@H]3CC[C@H]4CCC[C@H]43)nc2n(CCC)c1=O (relative stereo) [Compound 6, 8-[(1R*,2S*,5R*)-bicyclo[3.3.0]oxtan-2-yl]-1,3-dipropylxanthine]",Increase in K⁺ excretion (%),Wistar rats; [4],87%
same,Increase in Na⁺excretion (%),Wistar rats; [4],252%
same,Increase in Urine (%),Wistar rats; [4],330%
same,Na⁺/K⁺,Wistar rats; [4],1.88
same,Ratio of Ki Values [A₂/A₁],Adenosine A₁ Receptor,112
same,Ki,Adenosine A₁ Receptor,5 nM
same,inhibition at 100 µM,Adenosine A₁ Receptor,101%
same,inhibition at 10 µM,Adenosine A₁ Receptor,100%
same,inhibition at 10 µM,A₂ receptor,70%
same,inhibition at 100 µM,A₂ receptor,85%
same,Ki,A₂ receptor; [2],560 nM
"CCCn1c(=S)c2[nH]c(C34CC5CC(CC3C5)C4)nc2n(CCC)c1=S [Compound 33, 8-(Noradamantan-3-yl)-1,3-dipropyl-2,6-dithioxanthine]",Increase in K⁺ excretion (%),Wistar rats; 25 mg/kg oral,40%
same,Increase in Na⁺excretion (%),Wistar rats; 25 mg/kg oral,105%
same,Increase in Urine (%),Wistar rats; 25 mg/kg oral,99%
same,Na⁺/K⁺,Wistar rats; 25 mg/kg oral,1.47
same,Minimum lethal dose (MLD),"male dd-strain mice; mouse, in vivo, 10080 min",more than 300 mg/kg
"Cn1c(=O)c2[nH]cnc2n(C)c1=O [Aminophylline, reference compound]",suppression of increases of the serum creatinine and of urine-nitrogen,[1],weak effect
same,Increase in K⁺ excretion (%),Wistar rats; 25 mg/kg oral,17%
same,Increase in Na⁺excretion (%),Wistar rats; 25 mg/kg oral,89%
same,Increase in Urine (%),Wistar rats; 25 mg/kg oral,34%
same,Na⁺/K⁺,Wistar rats; 25 mg/kg oral,1.62
"CCCn1c(=O)c2c(nc(C34CC5CC(CC3C5)C4)n2C)n(CCC)c1=O [Compound 20, 1,3-Dipropyl-7-methyl-8-(noradamantan-3-yl)xanthine]",Minimum lethal dose (MLD),male dd-strain mice; [3],more than 300 mg/kg
"CC(C)Cn1c(=O)n(C)c(=O)c2[nH]c(C34CC5CC(CC3C5)C4)nc21 [Compound 30, 8-(Noradamantan-3-yl)-3-isobutyl-1-methylxanthine]",Increase in K⁺ excretion (%),Wistar rats; 25 mg/kg oral,50%
same,Increase in Na⁺excretion (%),Wistar rats; 25 mg/kg oral,126%
same,Increase in Urine (%),Wistar rats; 25 mg/kg oral,112%
same,Na⁺/K⁺,Wistar rats; 25 mg/kg oral,1.50
"NS(=O)(=O)c1cc(C(=O)O)c(NCc2ccco2)cc1Cl [Furosemide, reference compound]",effect on serum creatinine,"[1]; i.p., 24 hours after 50% glycerol s.c.",showed a tendency to increase the serum creatinine
same,Increase in Urine (%),Wistar rats; 25 mg/kg oral,75%
same,Na⁺/K⁺,Wistar rats; 25 mg/kg oral,1.07
"CCn1c(=O)c2[nH]c(C34CC5CC(CC3C5)C4)nc2n(CC)c1=O [Compound 28, 8-(Noradamantan-3-yl)-1,3-diethylxanthine]",Ratio of Ki Values [A₂/A₁],Adenosine A₁ Receptor,132
same,Ki,Adenosine A₁ Receptor,7.1 nM
same,inhibition at 100 µM,Adenosine A₁ Receptor,101%
same,inhibition at 10 µM,Adenosine A₁ Receptor,100%
same,inhibition at 10 µM,A₂ receptor,61%
same,inhibition at 100 µM,A₂ receptor,78%
same,Ki,A₂ receptor; [2],940 nM
"CCCn1c(=O)c2c(nc([C@@H]3CC[C@H]4CCC[C@H]43)n2C)n(CCC)c1=O (relative stereo) [Compound 18, 8-[(1R*,2R*,5R*)-Bicyclo[3.3.0]octan-2-yl]-1,3-dipropyl-7-methylxanthine]",Minimum lethal dose (MLD),"male dd-strain mice; mouse, in vivo, 10080 min",more than 300 mg/kg
"8-[(1R*,2R*,5S*)-Bicyclo[2.2.1]heptan-2-yl]methyl-1,3-dipropylxanthine [Compound 16]",suppression of increases of the serum creatinine and of urine-nitrogen,[1],significantly suppressed
same,pathological examination of removed kidneys: state of kidneys,"[1]; i.p., left kidney removed 24 hours after 50% glycerol s.c.",significantly improved
same,Increase in K⁺ excretion (%),Wistar rats; 25 mg/kg oral,38%
same,Increase in Na⁺excretion (%),Wistar rats; 25 mg/kg oral,191%
same,Increase in Urine (%),Wistar rats; 25 mg/kg oral,141%
same,Na⁺/K⁺,Wistar rats; 25 mg/kg oral,2.12
